Results as given in US20090053245A1, “Pharmacokinetics and Efficacy of Anti-Angiogenic Drugs and Drugs Treating Diseases of the Blood” (priority 2007, published 2009).

Assays:
[1] = biological target: T1, vitamin K epoxide reductase (Mus musculus, UniProt Q9CRC0); experiment: Time course of anticoagulant effect (Helena Thromboplastic Reagent MI clotting test); assay type: in vivo; conditions: mice, 1.5 mg/kg by gavage in 0.5% methylcellulose
T1 construct: clotting time doubles after only about 8 hours for warfarin-SLF dosed mice; from tissue; host or cells: live mice dosed by gavage; clotting time measured on their blood
T1 sequence (Q9CRC0 1-161): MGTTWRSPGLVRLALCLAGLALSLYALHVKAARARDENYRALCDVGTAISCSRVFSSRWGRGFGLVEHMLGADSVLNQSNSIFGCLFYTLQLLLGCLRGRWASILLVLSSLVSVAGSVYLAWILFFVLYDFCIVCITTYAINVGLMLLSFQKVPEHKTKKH
Procedure: Five mice per arm (fifteen animals total) were used for the test. […] The dose was 1.5 mg/kg, administered in 0.5% methylcellulose by gavage. The Helena Thromboplastic Reagent MI test (Helena Laboratories, Beaumont, Tex.) was employed to determine the duration of clotting.

CYP3a4 = biological target: T2, CYP3a4 (Homo sapiens, UniProt P08684); experiment: Fluorescence-based CYP3a4 assay (Invitrogen VIVID) with or without FKBP; assay type: in vitro ADME
T2 construct: purchased Invitrogen (Carlsbad, Calif.) P2856
T2 sequence (P08684 2-503 limits assumed): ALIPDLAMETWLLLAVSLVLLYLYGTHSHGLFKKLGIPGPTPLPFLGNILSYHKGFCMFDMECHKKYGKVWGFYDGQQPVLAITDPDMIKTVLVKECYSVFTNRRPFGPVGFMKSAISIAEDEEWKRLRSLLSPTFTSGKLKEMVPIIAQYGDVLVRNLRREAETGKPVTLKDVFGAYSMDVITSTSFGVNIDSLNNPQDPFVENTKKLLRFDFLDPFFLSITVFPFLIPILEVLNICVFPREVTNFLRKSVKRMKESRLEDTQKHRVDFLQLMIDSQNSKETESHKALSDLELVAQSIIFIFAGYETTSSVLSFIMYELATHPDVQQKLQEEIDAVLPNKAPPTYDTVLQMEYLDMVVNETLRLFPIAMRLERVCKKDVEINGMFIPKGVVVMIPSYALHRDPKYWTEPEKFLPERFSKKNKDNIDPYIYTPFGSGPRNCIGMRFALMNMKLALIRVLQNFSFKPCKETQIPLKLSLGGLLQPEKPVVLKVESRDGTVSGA

[2] = in vivo; cited from earlier work
[3] = non-transplant patients; cited from earlier work

With `CC(=O)CC(c1ccccc1)c1c(O)c2ccccc2oc1=O` (centres unmarked) [warfarin] the “time after which clotting time doubles” value [1] was 18 h.
In the case of `COc1cc(/C=C/C(=O)CC(=O)/C=C/c2ccc(O)c(OC)c2)ccc1O` [curcumin], the “protection from degradation by CYP3a4” value (CYP3a4; in the presence of human FKBP (recombinant bacterially-expressed protein)) is reported as “unable to protect” and the “substrate for the enzyme CYP3a4” value (CYP3a4; no FKBP added) is reported as “good substrates”.
In the case of `C=CC[C@@H]1/C=C(\C)C[C@H](C)C[C@H](OC)[C@H]2O[C@@](O)(C(=O)C(=O)N3CCCC[C@H]3C(=O)O[C@H](/C(C)=C/[C@@H]3CC[C@@H](O)[C@H](OC)C3)[C@H](C)[C@@H](O)CC1=O)[C@H](C)C[C@@H]2OC` [FK506], the “distribution in the blood” value [2] is listed as 72-98% and the half-life [3] is listed as 21 h.
